This note sets out measurements from patent publication US5373020A, “Substituted 5-(2-((2-aryl-2-hydroxyethyl)amino)propyl)-1,3-benzodioxoles” (American Cyanamid Company, priority 1993, dated 1994).

One assay has as its system ob/ob mice. Description: Plasma glucose, compound in chow, obese mice. The format is in vivo, mouse (C57 B1/6J ob/ob). How it is done:
(§1) The compounds of this invention were tested for hypoglycemic and anti-obesity activity according to the following procedure.
(§2) Obese mice (C57 B1/6J (ob/ob)), and/or diabetic mice (C57 B1/KsJ (db/db)) were obtained from Jackson Laboratories, Bar Harbor, Maine. Obese rats (fa/fa) were obtained from Charles River Laboratories, Wilmington, Mass. Obese mice were 8 weeks of age and diabetic mice were 9 weeks of age at the start of the test. Obese rats were 12-14 weeks of age at the start.
(§3) The test compounds were dissolved in methanol, mixed with powdered Purina rodent chow on a weight of compound to weight of chow basis and thoroughly dried.
(§4) Groups of 6 control mice or rats received vehicle (methanol) treated chow.
[…] Thus, a 40 g mouse, fed the test compound at a concentration of 0.02 percent of the diet, would receive a dose of 20 mg/kg/day if it ate 4 g of chow per day.
(§5) The mice or rats were weighed before the first treatment and once at the end of each indicated treatment period.
(§6) Blood samples were collected before the first treatment and once at the end of each indicated treatment period by retro-orbital puncture using heparinized capillary tubes.
(§7) Plasma was separated by centrifugation in a Beckman microfuge for 5 minutes. Plasma glucose concentrations were determined with the Beckman glucose analyzer which uses a glucose oxidase method.

The target in a further assay is T1, β3-receptors (Rattus norvegicus, UniProt P26255).
T1 construct: Rat epididymal fat pads were excised and placed in 0.9% saline; from tissue; host or cells: collagenase-isolated adipocytes from rat epididymal fat pads
T1 sequence (P26255 whole entry): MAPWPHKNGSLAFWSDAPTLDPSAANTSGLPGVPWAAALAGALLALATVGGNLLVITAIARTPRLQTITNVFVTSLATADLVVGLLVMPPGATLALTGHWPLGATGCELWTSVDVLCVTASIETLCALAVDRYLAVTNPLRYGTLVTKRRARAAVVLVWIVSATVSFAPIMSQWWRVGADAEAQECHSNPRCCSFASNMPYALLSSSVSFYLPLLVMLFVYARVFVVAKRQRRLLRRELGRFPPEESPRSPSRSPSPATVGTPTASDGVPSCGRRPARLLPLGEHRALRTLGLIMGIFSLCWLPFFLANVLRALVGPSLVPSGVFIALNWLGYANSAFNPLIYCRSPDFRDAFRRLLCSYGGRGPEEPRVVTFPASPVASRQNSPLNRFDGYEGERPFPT
Description: Stimulation of adipocyte lipolysis (β3-effect). Format: cell-based. How it is done:
(§8) β-Adrenergic receptors can be divided into β1, β2 and β3 -subtypes. Activation of β1 -receptors invokes increases in heart rate while activation of β2 -receptors stimulates glycogen breakdown in muscle and thereby prevents glycogen synthesis. Activation of β3 -receptors stimulates lipolysis (the breakdown of adipose tissue triglycerides to glycerol and free fatty acids), and thereby promotes the loss of fat mass.
The β3 -effect of the compounds was determined by their ability to stimulate adipocyte lipolysis. Rat epididymal fat pads were excised and placed in 0.9% saline. Four grams of tissue were transferred to a flask with 20 ml of aerated Krebs-Henseleit bicarbonate (KHB) buffer containing 3% fatty acid-free bovine serum albumin to which 75 mg of crude bacterial collagenase (Worthington) had been added. The tissue was incubated for about 45 minutes at 37° C. with gentle shaking. The cells were then washed three times with two volumes of KHB buffer, filtered through two layers of gauze, and brought to a final volume of 80 ml with KHB buffer. One ml aliquots of the cell suspension were added to plastic test tubes containing the appropriate additions of vehicle or compound. The cells were gassed for 1 minute with 95% O2 -5% CO2, capped, and incubated at 37° C. with continuous shaking for a total of 30 minutes. The reaction was stopped by adding 0.1 ml of 30% perchloric acid and 0.1 ml of chloroform. After centrifugation, 0.5 ml of supernatant was transferred to another test tube and neutralized with 0.04 ml of 3M K2 CO3 -0.5M triethanolamine. The amount-of glycerol generated from the hydrolysis of endogenous triglycerides was determined in a coupled-enzyme spectrophotometric assay. […] The test tubes were incubated for 40 minutes at 37° C. with constant shaking. […] This value was corrected for the amount of NADH generated in the absence of glycerol by incubating another aliquot of the neutralized extract with the same assay mixture but without glycerokinase.

For a further assay, the target named is T2, β2-receptors (Mus musculus, UniProt P18762).
T2 construct: Soleus muscle from mice were dissected; from tissue; host or cells: mouse soleus muscle
T2 sequence (P18762 whole entry): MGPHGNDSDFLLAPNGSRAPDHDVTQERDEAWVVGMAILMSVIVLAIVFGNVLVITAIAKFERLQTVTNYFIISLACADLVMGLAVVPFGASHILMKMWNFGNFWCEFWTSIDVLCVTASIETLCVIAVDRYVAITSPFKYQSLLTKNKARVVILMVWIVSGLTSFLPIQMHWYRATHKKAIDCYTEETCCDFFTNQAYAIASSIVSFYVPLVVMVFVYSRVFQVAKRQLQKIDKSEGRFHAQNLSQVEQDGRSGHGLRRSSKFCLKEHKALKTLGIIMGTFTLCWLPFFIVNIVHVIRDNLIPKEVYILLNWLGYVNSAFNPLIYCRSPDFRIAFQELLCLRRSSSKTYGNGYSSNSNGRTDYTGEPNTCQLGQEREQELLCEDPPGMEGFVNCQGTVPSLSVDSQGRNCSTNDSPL
Description: Inhibition of insulin-mediated incorporation of 14C-glucose into glycogen in isolated soleus muscle (β2-effect). The settings on record: for β2 activity: CL1 vs BRL1 (FIG. 1), CL2 vs BRL2 (FIG. 2). How it is done:
as §8
The β2 -effect of the compounds was determined by their ability to inhibit the insulin-mediated incorporation of ^14 C-glucose into glycogen in isolated muscle. Soleus muscle from mice were dissected, tied at each end, and placed in a clamp to maintain tension. The clamped muscle was added to a vial that contained 2 ml of KHB with 1.5% bovine serum albumin, 0.3 mU/ml insulin, 5 mM (U^-14 C) glucose, and the appropriate additions of compound or vehicle. The vial was gassed with 95% O2 -5% CO2, capped, and the tissue incubated for one hour in a rotating water bath at 37° C. The muscle was then removed, rinsed in ice-cold saline, blotted and weighed. It was then added to 1 ml of 30% KOH containing 5 mg/ml of oyster glycogen, boiled for 10 minutes, and 0.4 ml of 2% Na2 SO4 and 3.2 ml of 100% ethanol added. After standing overnight at 4° C., the glycogen was pelleted by centrifugation, washed once with 66% ethanol, and repelleted. The pellet was dissolved in 1 ml of water and the amount of radioactivity present determined by liquid scintillation.

The next assay has as its system db/db mice. Description: Plasma glucose, compound in chow, diabetic mice. The format is in vivo, mouse (C57 B1/KsJ db/db). Conditions: dose 0.005 % wt of chow. How it is done: as §1, §2, §3, §4
Groups of 6 test mice were fed ad libitum for up to seven weeks and food consumption was measured daily by weighing the food bins before and after the addition of fresh chow. Thus, a 40 g mouse, fed the test compound at a concentration of 0.02 percent of the diet, would receive a dose of 20 mg/kg/day if it ate 4 g of chow per day.
as §5, §6, §7

A further assay concerns the target T3, β1-receptors (Cavia porcellus, UniProt H0W3H1).
T3 construct: from tissue; host or cells: guinea pig right atria
Description: Effect on heart rate of isolated right atria (β1-effect). Also noted: species or system guinea pig. The settings on record: for β1 activity: CL1 vs BRL1 (FIG. 1), CL2 vs BRL2 (FIG. 2). How it is done:
as §8
Selectivity of a compound was determined using the following procedures. The effect on heart rate (β1 -effect) was determined using isolated right atria. […] The right atria were dissected and clamped at one end to a tissue holder and electrode assembly (MRA Corp.) and tied at the other end to a force-displacement transducer (Gould-Statham, Burco). The tissues were maintained at 32° C. in a 50 ml capacity glass chamber (MRA Corp.) preloaded with 0.5 g tension. Heart rate was monitored by a Grass polygragh. […] The increase in heart rate was calculated and considered to be the maximum response for that tissue. The tissues were then washed and allowed to equilibrate for 90 minutes. Cumulative concentration-response curves were then determined for each compound or vehicle. All responses were measured 5 minutes post-exposure.

[1] abbreviates: dose 0.002 % wt of chow, week 0 (before treatment).
Setting [2] is: dose 0.002 % wt of chow, week 1.
[3] abbreviates: dose 0.005 % wt of chow, week 0 (before treatment).
[4] abbreviates: dose 0.005 % wt of chow, week 1.
Setting [5] is: dose 0.02 % wt of chow, week 0 (before treatment).

Where two headings read alike, the source gives them in different places.

T3 sequence (H0W3H1 1-470): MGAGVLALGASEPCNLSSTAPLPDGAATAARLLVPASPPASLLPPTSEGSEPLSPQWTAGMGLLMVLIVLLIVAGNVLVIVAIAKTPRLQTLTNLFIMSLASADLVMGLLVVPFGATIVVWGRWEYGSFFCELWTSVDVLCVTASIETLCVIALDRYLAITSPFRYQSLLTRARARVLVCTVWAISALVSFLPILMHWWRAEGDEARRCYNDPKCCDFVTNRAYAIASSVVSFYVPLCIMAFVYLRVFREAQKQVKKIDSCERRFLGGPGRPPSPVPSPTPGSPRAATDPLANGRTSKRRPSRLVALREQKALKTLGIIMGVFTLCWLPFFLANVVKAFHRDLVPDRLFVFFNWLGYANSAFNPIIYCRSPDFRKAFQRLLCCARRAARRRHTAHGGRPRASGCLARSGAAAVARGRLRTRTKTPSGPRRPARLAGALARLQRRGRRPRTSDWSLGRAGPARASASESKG

Take `C[C@H](Cc1ccc2c(c1)OCO2)NC[C@H](O)c1cccc(Cl)c1` (racemic) [(R*,R*)-(+/-)-alpha-(((2-(1,3-benzodioxol-5-yl)-1-methylethyl)amino)methyl)-3-chlorobenzenemethanol mixture with (R*,S*)-(+/-)alpha-(((2-(1,3-benzodioxol-5-yl)-1-methylethyl)amino)methyl)-3-chlorobenzenemethanol, reference compound]: the “Plasma Glucose Levels” value in the assay with ob/ob mice (setting [1]) came out at 226 mg/100 ml; in the assay on ob/ob mice (setting [2]), 234 mg/100 ml; in the assay on ob/ob mice (setting [3]) it was 227 mg/100 ml; in the assay on ob/ob mice (setting [4]) it was 175 mg/100 ml; with ob/ob mice (setting [5]) it was 227 mg/100 ml; in the assay with ob/ob mice (dose 0.02 % wt of chow, week 1) it was 149 mg/100 ml.
With `COC(=O)C1(C(=O)OC)Oc2ccc(C[C@@H](C)NC[C@@H](O)c3cccc(Cl)c3)cc2O1` (relative stereo) [(R*,S*)-(+/-)-5(2-((2-(3-chlorophenyl))-2-hydroxyethyl)amino)propyl)-1,3-benzodioxole-2,2-dicarboxylic acid, dimethyl ester], the “Plasma Glucose Levels” value with ob/ob mice (setting [3]) is on record as 218 mg/100 ml; in the assay on ob/ob mice (dose 0.005 % wt of chow, week 5) it was 162 mg/100 ml; in the assay on ob/ob mice (dose 0.005 % wt of chow, week 10), 174 mg/100 ml; in the assay on ob/ob mice (setting [5]), 219 mg/100 ml; with ob/ob mice (dose 0.02 % wt of chow, week 5) it was 135 mg/100 ml; with ob/ob mice (dose 0.02 % wt of chow, week 10), 153 mg/100 ml.
`C[C@@H](Cc1ccc2c(c1)OCO2)NC[C@H](O)c1cccc(Cl)c1` (relative stereo) [(R*,S*)-(+/-)-alpha-(((2-(1,3-benzodioxol-5-yl)-1-methylethyl)amino)methyl)-3-chlorobenzenemethanol, reference compound]: the “Plasma Glucose Levels” value with ob/ob mice (setting [1]) is given as 228 mg/100 ml; with ob/ob mice (setting [2]), 204 mg/100 ml; in the assay on ob/ob mice (setting [3]) it was 226 mg/100 ml; in the assay on ob/ob mice (setting [4]) it was 176 mg/100 ml; in the assay with ob/ob mice (setting [5]) it was 229 mg/100 ml; in the assay with ob/ob mice (dose 0.02 % wt of chow, week 1) it was 128 mg/100 ml.
Turning to `COC(=O)COc1ccc(C[C@@H](C)NC[C@H](O)c2ccc(Cl)cc2)cc1` (relative stereo) [BRL1, (R*,R*)-(±)-(4-(2-((2-(4-chlorophenyl)-2-hydroxyethyl)amino)propyl)phenoxy)-acetic acid, methyl ester, reference compound], the EC50 turned out to be 0.013 µM on β3-receptors, 0.12 µM on β2-receptors and 0.2 µM at β1-receptors. In addition, on β3-receptors (CL1 vs BRL1 (FIG. 1), CL2 vs BRL2 (FIG. 2)), the “β3 potency in comparison” value is listed as “slightly greater β3 potency”. Moreover, the “Selectivity for Lipolysis over Atria ((EC50 - β1)/(EC50 - β3))” value at β3-receptors (ratio EC50 β1 / EC50 β3) is recorded as 15. In addition, on β3-receptors (ratio EC50 β2 / EC50 β3), the “Selectivity for Lipolysis over Gly. Syn. ((EC50 - β2)/(EC50 - β3))” value worked out at 9. The “β2 activity” value on β2-receptors is “more of the undesirable β1 and β2 activities than does CL1”. The “Plasma Glucose Levels” value in the assay with ob/ob mice (dose 0.0001 % wt of chow, week 0 (before treatment)) is on record as 231 mg/100 ml; in the assay on ob/ob mice (dose 0.0001 % wt of chow, week 1), 143 mg/100 ml; in the assay on ob/ob mice (dose 0.0001 % wt of chow, week 2), 119 mg/100 ml; with ob/ob mice (dose 0.0005 % wt of chow, week 0 (before treatment)), 232 mg/100 ml; in the assay on ob/ob mice (dose 0.0005 % wt of chow, week 1), 140 mg/100 ml; with ob/ob mice (dose 0.0005 % wt of chow, week 2), 126 mg/100 ml. Besides, the “Plasma Glucose Levels” value amounted to 231 mg/100 ml with ob/ob mice (setting [3]); 137 mg/100 ml in the assay on ob/ob mice (setting [4]); 138 mg/100 ml in the assay on ob/ob mice (dose 0.005 % wt of chow, week 2); 440 mg/100 ml with db/db mice (week 0 (before treatment)); 138 mg/100 ml with db/db mice (week 1); 132 mg/100 ml in the assay on db/db mice (week 2). Also, the “β1 activity” value at β1-receptors was “more of the undesirable β1 and β2 activities than does CL1”.
As to `C[C@H](Cc1ccc(OCC(=O)[O-])cc1)NC[C@H](O)c1cccc(Cl)c1.[Na+]` (relative stereo) [BRL2, (R*,R*)(+/-)4-(2-((2-(3-chlorophenyl)-2-hydroxyethyl)amino)propyl)phenoxy-acetic acid, monosodium salt], at β2-receptors, the EC50 stood at 0.8 µM and the “β2 activity” value is “full agonist with measurable activity at 1×10^-7M”. Besides, at β1-receptors, a half-maximal response (EC50) required 5.6 µM and the “β1 activity” value is reported as “significant β1 activity”.
For the molecule `COC(=O)C1(C(=O)OC)Oc2ccc(C[C@@H](C)NC[C@H](O)c3cccc(Cl)c3)cc2O1` (stereo in doubt) [CL5, (R,R)(+/-)5-(2-((2-(3-chlorophenyl)-2-hydroxyethyl)-amino)propyl)-1,3-benzodioxole-2,2-dicarboxylic acid, dimethyl ester hydrobomide], at β3-receptors (RR vs SS enantiomer, lipolysis), the “relative β3 potency of RR over SS form” value was 36 fold.
As to `COC(=O)C1(C(=O)OC)Oc2ccc(C[C@H](C)NC[C@@H](O)c3cccc(Cl)c3)cc2O1` (stereo in doubt) [CL6, (S,S)(+/-)5-(2-((2-(3-chlorophenyl)-2-hydroxyethyl)-amino)propyl)-1,3-benzodioxole-2,2-dicarboxylic acid, dimethyl ester hydrobomide], the EC50 on β3-receptors (read-out: Lipolysis (β3) (EC50)) is 0.29 µM.

What is called EC50 is the concentration at which the effect is half-maximal.
